Laboratory results from patent US12558428B2, “Heterobifunctional compounds and their use in treating disease” (Halda Therapeutics OpCo, Inc., priority 2024, dated 2026).
Where two headings read alike, the source gives them in different places.

Columns and labels:
Assay type in all cases: cell-based
[1] = tested on: T-Rex 293 cells lacking increased expression of estrogen receptor alpha protein; assay: Cellular growth inhibition assay, T-Rex 293 cells, (−) doxycycline; conditions: T-REx-293, 72 h, 72 hours
Procedure: (§1) Exemplary compounds were tested for the ability to inhibit the proliferation of the following types of cells: (i) a T-Rex 293 cell line having increased expression of estrogen receptor alpha protein from exposure to doxycycline and (ii) a T-Rex 293 cell line lacking increased expression of estrogen receptor alpha protein.
(§2) The following types of cells were prepared for this experiment: (i) a T-Rex 293 cell line having increased expression of estrogen receptor alpha protein from exposure to doxycycline and (ii) a T-Rex 293 cell line lacking increased expression of estrogen receptor alpha protein. The ability of the test compounds to inhibit proliferation of the foregoing cell types was evaluated according to the procedures set forth below.
(§3) The doxycycline-inducible estrogen receptor alpha protein expressing cell line was established using the following protocol: T-Rex 293 cells were purchased from Invitrogen (Cat #R71007) and transfected using Lipofectamine 2000 with the wild-type estrogen receptor alpha protein sequence cloned into the pcDNA4/TO vector. Transfected cells were selected using 400 μg/mL Zeocin (Invitrogen Cat #R25001). Following selection, single clones were raised and maintained in Dulbecco's Modified Eagle Medium (DMEM) supplemented with 10% w/w Tetracycline-free fetal bovine serum (FBS) and 250 μg/mL Zeocin. Clones were analyzed for expression of estrogen receptor alpha protein in the presence and absence of 3 ng/mL doxycycline (Sigma Cat #D9891), and a single doxycycline-inducible clone (hereinafter “SC”) was selected for use in downstream assays.
(§4) The SC cells were seeded on poly-D-lysine coated, black clear-bottom 384-well plates at 2500/well, in 25 μL Phenol Red Free Dulbecco's Modified Eagle Medium (DMEM) supplemented with 10% w/w charcoal-dextran treated fetal bovine serum (FBS) and 1% w/w pen-strep, with or without 3 ng/mL doxycycline. Pen-Strep is a commercially available mixture of penicillin G and streptomycin, which is used in mammalian cell culture media to prevent bacterial contamination. Phenol Red Free Dulbecco's Modified Eagle Medium (DMEM) supplemented with 10% w/w charcoal-dextran treated fetal bovine serum (FBS) and 1% w/w pen-strep, with or without 3 ng/mL doxycycline is herein referred to as Treatment Medium. Following seeding of cells in the plates, the plates were spun at 300×g for 30 seconds, then equilibrated to room temperature for 30 minutes, and then deposited in a humidified tissue culture incubator maintained at 37° C. with 5% CO2.
(§5) At 24 hours after seeding of the cells, dilutions of test compound were prepared in DMSO and dissolved in Treatment Medium, to achieve a final DMSO concentration of 0.5% w/w, thereby providing the Test Compound Solution. A 25 μL aliquot of the Test Compound Solution was added to cells in the well plates. An equal volume of a solution containing DMSO and Treatment Medium was used as a negative control. Following treatment of cells with Test Compound Solution or said equal volume of a solution containing DMSO and Treatment Medium, the plates were spun at 300×g for 30 seconds, and then left in an incubator for 72 hours.
(§6) At the end of the treatment duration, cell viability was quantified with CellTiter-Glo 2.0 reagent (Promega Cat #G9243). For this purpose, plates were equilibrated to room temperature for 30 minutes, and then 25 μL of CellTiter-Glo 2.0 reagent was added to cells in the plate wells. Plates were then agitated on a shaker for two minutes at 500 rpm and subsequently incubated at room temperature for 10 minutes. Following incubation, the plates were spun at 3000×g for 30 seconds, then sealed with an optical adhesive cover, and luminescence readings were measured with an EnVision Plate Reader (Perkin Elmer).
(§7) Data was normalized using zero luminescence for baseline. […]

[2] = tested on: MCF7 cells (ATCC #HTB-22); assay: Cellular growth inhibition assay, MCF7 cells purchased from ATCC; conditions: Homo sapiens, MCF7, 144 h, Table 8-A; MCF7 cells purchased from ATCC; six days; CellTiter-Glo; read-out: GI50
Procedure: Exemplary compounds were tested for the ability to inhibit the proliferation of MCF7 cells.
MCF7 cells (ATCC #HTB-22 or ECACC #86012803) were cultured in RPMI 1640 medium supplemented with 10% heat-inactivated fetal bovine serum, 1% pen-strep, and 0.2 U/ml insulin. Cells were seeded in 25 μL of RPMI 1640 medium supplemented with 10% heat-inactivated fetal bovine serum, 1% pen-strep, 0.2 U/ml insulin in poly-D-lysine treated, black clear-bottom 384-well plates at 225 cells/well for MCF7 cells purchased from ECACC or 1,500 cells/well for MCF7 cells purchased from ATCC. Following seeding, plates were spun at 300×g for 30 seconds and cultured at 37° C. with 5% CO2 in a humidified tissue culture incubator.
At 24 hours after seeding, compounds were titrated in 100% DMSO and diluted in RPMI 1640 medium supplemented with 10% heat-inactivate fetal bovine serum, 1% pen-strep, and 0.2 U/ml insulin. A 25 μL aliquot of the compound/media mixture was added to cells, bringing the total volume in each well to 50 μL. An equal volume of DMSO without compound was used as a negative control. After treatment, plates were spun at 300×g for 30 seconds, then cultured at 37° C. with 5% CO2 for six days in a humidified tissue culture incubator.
On Day 6 of treatment, cell viability was quantified with CellTiter-Glo 2.0 reagent (Promega). Plates were equilibrated to room temperature for 30 minutes, then 25 μL of CellTiter-Glo 2.0 reagent was added to cells, bringing the total volume in each well to 75 μL. After reagent was added, plates were mixed on a shaker for two minutes at 500 rpm and then incubated at room temperature for 10 minutes. Following incubation, plates were spun at 3,000×g for 30 seconds, sealed with an optical adhesive cover, and luminescence readings were measured with an EnVision Plate Reader.
Data was normalized to 0 luminescence for baseline. A four-parameter, non-linear regression curve fit was applied to dose-response data in GraphPad Prism data analysis software to determine the half maximal growth inhibitory concentration (GI50) for each compound.

[3] = tested on: T-Rex 293 cells having increased expression of estrogen receptor alpha protein; assay: Cellular growth inhibition assay, T-Rex 293 cells, (+) doxycycline; conditions: T-REx-293, 72 h, 72 hours
Procedure: as §1, §2, §3, §4, §5, §6, §7

[4] = Table 7-A, T-Rex 293 cells without doxycycline (lacking increased ERα expression), CellTiter-Glo, read-out: (−) Dox GI50
[5] = Table 7-A, T-Rex 293 cells with doxycycline (increased ERα expression), CellTiter-Glo, read-out: (+) Dox GI50

| Compound | GI50 ([1]; T-Rex 293 cells without doxycycline, CellTiter-Glo 2.0, read-out: (−) Dox TRex ERa (GI50)) | GI50 [2] | GI50 ([3]; T-Rex 293 cells with doxycycline-induced ERα expression, CellTiter-Glo 2.0, read-out: (+) Dox TRex ERa (GI50)) | GI50 [1, 4] | GI50 [3, 5] |
| --- | --- | --- | --- | --- | --- |
| Cc1sc2c(c1C)C(c1ccc(OC3CC4(CCN(c5ccc(C(=O)c6c(-c7ccc(O)cc7)sc7cc(O)ccc67)cc5)CC4)C3)cc1)=N[C@@H](Cc1ncco1)c1nnc(C)n1-2 (single isomer, unassigned) [I-26, (6-hydroxy-2-(4-hydroxyphenyl)benzo[b]thiophen-3-yl)(4-(2-(4-(2,3,9-trimethyl-6-(oxazol-2-ylmethyl)-6H-thieno[3,2-f][1,2,4]triazolo[4,3-a][1,4]diazepin-4-yl)phenoxy)-7-azaspiro[3.5]nonan-7-yl)phenyl)methanone] | 50 to 500 nM | < 50 nM | < 50 nM |  |  |
| Cc1sc2c(c1C)C(c1ccc(N3CCN(CC4CCN(c5ccc([C@H]6c7ccc(O)cc7CC[C@H]6c6ccccc6)cc5)CC4)CC3)cc1)=N[C@@H](C)c1nnc(C)n1-2 (single isomer, unassigned) [I-37a] |  | 50 to 500 nM |  | 500 to 2500 nM | 50 to 500 nM |
| Cc1sc2c(c1C)C(c1ccc(N3CCN(CC4CCN(c5ccc([C@@H]6c7ccc(O)cc7CC[C@@H]6c6ccccc6)cc5)CC4)CC3)cc1)=N[C@@H](C)c1nnc(C)n1-2 (single isomer, unassigned) [I-37b] |  | 500 to 2500 nM |  | 500 to 2500 nM | 500 to 2500 nM |
| CCN(CCOCCOCCOCCOCCOCCOCCCCCCCCc1cc(Cl)cc(NC(=O)NCc2ccc3c(c2)CN(C2CCC(=O)NC2=O)C3=O)c1)CCOc1ccc(C(=O)c2c(-c3ccc(O)cc3)sc3cc(O)ccc23)cc1 (centres unmarked) [II-1] |  | < 50 nM |  |  |  |
| CCN(CCCCCCCCc1cc(Cl)cc(NC(=O)NCc2ccc3c(c2)CN(C2CCC(=O)NC2=O)C3=O)c1)CCOc1ccc(C(=O)c2c(-c3ccc(O)cc3)sc3cc(O)ccc23)cc1 (centres unmarked) [II-3] |  | < 50 nM |  |  |  |
| COc1cc(N2CCN(CC3(O)CCN(c4ccc(C5=N[C@@H](C)c6nnc(C)n6-c6sc(C)c(C)c65)cc4)CC3)CC2)c(F)cc1[C@@H]1c2ccc(O)cc2CC[C@@H]1c1ccc(F)cc1 [III-320] |  |  |  | 500 to 2500 nM | < 50 nM |
| Cc1sc2c(c1C)C(c1ccc(N3CCC(CN4CCN(c5ccc([C@@H]6c7ccc(O)cc7CC[C@@H]6c6ccccc6F)c(F)c5)CC4)CC3)cc1)=N[C@@H](C)c1nnc(C)n1-2 [III-323] |  |  |  | 500 to 2500 nM | < 50 nM |
| Cc1sc2c(c1C)C(c1ccc(N3CCC(CN4CCN(c5ccc([C@H]6c7ccc(O)cc7CC[C@H]6c6ccccc6F)c(F)c5)CC4)CC3)cc1)=N[C@@H](C)c1nnc(C)n1-2 [III-324] |  |  |  | 50 to 500 nM | 50 to 500 nM |
| Cc1sc2c(c1C)C(c1ccc(N3CCC(CN4CCN(c5ccc([C@@H]6c7ccc(O)cc7CC[C@@H]6c6cccc(F)c6)c(F)c5)CC4)CC3)cc1)=N[C@@H](C)c1nnc(C)n1-2 [III-325] |  |  |  | 500 to 2500 nM | 50 to 500 nM |
| Cc1sc2c(c1C)C(c1ccc(N3CCC(CN4CCN(c5ccc([C@H]6c7ccc(O)cc7CC[C@H]6c6cccc(F)c6)c(F)c5)CC4)CC3)cc1)=N[C@@H](C)c1nnc(C)n1-2 [III-326] |  |  |  | 500 to 2500 nM | 500 to 2500 nM |
| COc1cc(N2CCN(CC3(O)CCN(c4ccc(C5=N[C@@H](C)c6nnc(C)n6-c6sc(C)c(C)c65)c(F)c4)CC3)CC2)ccc1[C@@H]1c2ccc(O)cc2CC[C@@H]1c1ccc(F)cc1 [III-328, 1-(3-fluoro-4-((6S)-2,3,6,9-tetramethyl-6H-thieno[3,2-f][1,2,4]triazolo[4,3-a][1,4]diazepin-4-yl)phenyl)-4-((4-(4-((1S,2S)-2-(4-fluorophenyl)-6-hydroxy-1,2,3,4-tetrahydronaphthalen-1-yl)-3-methoxyphenyl)piperazin-1-yl)methyl)piperidin-4-ol] |  |  |  | 500 to 2500 nM | < 50 nM |
| COc1cc(N2CCN(CC3CCN(c4ccc(C5=N[C@@H](C)c6nnc(C)n6-c6sc(C)c(C)c65)cc4)CC3)CC2)ccc1[C@H]1c2ccc(O)cc2CC[C@H]1c1ccc(C)cc1 [III-329] |  |  |  | 50 to 500 nM | 50 to 500 nM |
| COc1cc(N2CCN(CC3CCN(c4ccc(C5=N[C@@H](C)c6nnc(C)n6-c6sc(C)c(C)c65)cc4)CC3)CC2)ccc1[C@@H]1c2ccc(O)cc2CC[C@@H]1c1ccc(C)cc1 [III-330] |  |  |  | 50 to 500 nM | < 50 nM |
| COc1cc(N2CCN(CC3CCN(c4ccc(C5=N[C@@H](C)c6nnc(C)n6-c6sc(C)c(C)c65)c(F)c4)CC3)CC2)ccc1[C@H]1c2ccc(O)cc2CC[C@H]1c1ccc(C)cc1 [III-331] |  |  |  | 500 to 2500 nM | 500 to 2500 nM |
| COc1cc(N2CCN(CC3CCN(c4ccc(C5=N[C@@H](C)c6nnc(C)n6-c6sc(C)c(C)c65)c(F)c4)CC3)CC2)ccc1[C@@H]1c2ccc(O)cc2CC[C@@H]1c1ccc(C)cc1 [III-332] |  |  |  | 50 to 500 nM | < 50 nM |
| Cc1sc2c(c1C)C(c1ccc(N3CCC(O)(CN4CCC(c5cc(F)c([C@H]6c7ccc(O)cc7CC[C@H]6c6ccc(F)cc6)c(F)c5)CC4)CC3)cc1F)=N[C@@H](C)c1nnc(C)n1-2 [III-337, 4-((4-(3,5-difluoro-4-((1R,2R)-2-(4-fluorophenyl)-6-hydroxy-1,2,3,4-tetrahydronaphthalen-1-yl)phenyl)piperidin-1-yl)methyl)-1-(3-fluoro-4-((6S)-2,3,6,9-tetramethyl-6H-thieno[3,2-f][1,2,4]triazolo[4,3-a][1,4]diazepin-4-yl)phenyl)piperidin-4-ol] |  |  |  | 500 to 2500 nM | 50 to 500 nM |
| Cc1sc2c(c1C)C(c1ccc(N3CCC(O)(CN4CCC(c5cc(F)c([C@@H]6c7ccc(O)cc7CC[C@@H]6c6ccc(F)cc6)c(F)c5)CC4)CC3)cc1F)=N[C@@H](C)c1nnc(C)n1-2 [III-338, 4-((4-(3,5-difluoro-4-((1S,2S)-2-(4-fluorophenyl)-6-hydroxy-1,2,3,4-tetrahydronaphthalen-1-yl)phenyl)piperidin-1-yl)methyl)-1-(3-fluoro-4-((6S)-2,3,6,9-tetramethyl-6H-thieno[3,2-f][1,2,4]triazolo[4,3-a][1,4]diazepin-4-yl)phenyl)piperidin-4-ol] |  |  |  | 500 to 2500 nM | < 50 nM |
